Laboratory results published in patent US20220202739A1, “ENDOCANNABINOID MIMETIC AND ANTI-INFLAMMATORY COMPOUND CONTAINING COMPOSITIONS, METHODS OF PREPARATION AND USES THEREOF” (priority 2019, published 2022).

What follows are compounds tested on MMP1 (assay: Gene expression custom microarray, pooled keratinocyte line (Example 3): MMP1). Conditions: pooled keratinocytes, 20 ppm, 24 hr.
Assay type: cell-based, human
Protocol: Cell cultures: Received and began culture of pooled keratinocyte line from Promocell (C-12006; Lot #448Z026). Cells were seeded into a 75 cm2 flask and 2 6 well dishes for expansion and exposure per manufacturer's protocol using Keratinocyte Growth Medium (C2011B), Keratinocyte Supplement Mix (C39016) and CaCl (C34005). 2 ml of prepared solution were added to each of the 6 wells and 7 ml was added to the 75 cm2 flask.
Experimental phase: When the appropriate quantity of cells were grown, they were detached as described above, but at the final step were seeded into each well of one or more 6 well dishes. Each well received 2 ml of the cells suspended in suspension so they were seeded equally. The dishes were returned to the incubator until 85-95% confluency is reached.
It was at this stage that all wells were rinsed in PBS after aspirating the growth media. The compound(s) to be tested were previously mixed into a suitable solvent (e.g., DMSO or ethanol) that can be diluted to the desired concentration of test compound (10 μl) in the culture wells without exceeding maximum solvent concentrations and adversely effecting cell viability, and mixed with Basal Keratinocyte Media. NOTE: Standard maximum levels of solvent are 0.1% for DMSO and 0.5% for ETOH. The concentration for each tested compound/natural extract is generally listed in the left-hand column of Table 4. For certain compositions (e.g., compositions 15 and 16), other concentrations were used and are noted in the body of Table 4.
Every 2 wells on the 6 well plate served as a biological replicate for the purposes of RNA isolation and genetic expression evaluations making each 6 well dish an n=3 for the test compound contained in the media. […]
At the end of the 24 hr time period, the plates were removed from the incubator, the test media aspirated, and the cells rinsed with PBS. […] Allow 1 minute for saturation of the membrane and then centrifuge for 2 minutes to complete the RNA elution. • Quantify the quantity of RNA and store at −20 C° until use (no more than 1 month) […]

Compound	↓MMP1 gene expression, fold increase or decrease vs untreated cells [fold]
C=C(C)[C@@H]1CCC(C)=C[C@H]1c1c(O)cc(CCCCC)cc1O [CBD, cannabidiol, reference compound]	6.5
CCCCCCCCCCCCCCCC(=O)NCCO [N-palmitoylethanolamide]	12.2
CC(C)[C@]12O[C@H]1[C@@H]1O[C@]13[C@]1(O[C@H]1C[C@H]1C4=C(CC[C@@]13C)C(=O)OC4)[C@@H]2O [Triptolide]	1.2
